Assay results published in article PMC7997574, “Lead Optimization of Benzoxazolone Carboxamides as Orally Bioavailable and CNS Penetrant Acid Ceramidase Inhibitors” (Journal of Medicinal Chemistry, 2020).

Tests used:
[1] = biological target: T1, human fatty acid amide hydrolyase (FAAH) (Homo sapiens, UniProt O00519); experiment: Fluorogenic hFAAH assay; type: biochemical
T1 construct: expressed in transfected cells
T1 sequence (O00519 1-579): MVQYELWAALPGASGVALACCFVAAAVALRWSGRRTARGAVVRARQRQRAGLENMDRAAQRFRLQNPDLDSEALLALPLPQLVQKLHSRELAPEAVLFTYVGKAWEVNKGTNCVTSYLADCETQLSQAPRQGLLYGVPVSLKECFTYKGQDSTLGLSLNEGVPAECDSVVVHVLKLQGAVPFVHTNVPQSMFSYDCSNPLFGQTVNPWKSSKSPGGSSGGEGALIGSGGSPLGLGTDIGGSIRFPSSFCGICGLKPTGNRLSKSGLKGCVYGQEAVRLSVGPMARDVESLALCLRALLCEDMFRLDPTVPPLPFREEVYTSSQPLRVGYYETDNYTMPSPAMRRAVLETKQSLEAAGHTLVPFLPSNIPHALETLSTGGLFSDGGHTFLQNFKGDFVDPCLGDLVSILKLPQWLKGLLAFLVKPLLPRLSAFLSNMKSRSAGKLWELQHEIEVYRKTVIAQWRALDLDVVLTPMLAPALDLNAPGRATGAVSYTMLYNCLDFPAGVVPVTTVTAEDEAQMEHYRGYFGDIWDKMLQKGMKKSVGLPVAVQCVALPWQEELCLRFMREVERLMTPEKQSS
Description: hFAAH was obtained from a HEK-293 FAAH-1 overexpressing stable cell line. Cells were grown in Dulbecco’s modified Eagle medium (DMEM) containing 10% FBS, 1% penicillin/streptomycin, 1% glutamine, 1 mM sodium pyruvate, and 500 μg mL^–1 G418. Cells were harvested, and pellets were stored at −80 °C until membrane-enriched lysate preparation. The cell pellet was resuspended in 20 mM Tris HCl (pH 7.4, 0.32 M sucrose), sonicated, and centrifuged at 1000 × g (10 min, 4 °C). The collected supernatant was centrifuged at 12000 × g for 10 min at 4 °C, and the supernatants were further centrifuged at 100000 × g for 1 h at 4 °C. Membrane pellets were resuspended in PBS, protein concentration was measured, and samples were aliquoted and stored at −80 °C until use.
The fluorescence assay to measure FAAH activity was performed in 96-well black plates (Black OptiPlate-96F; PerkinElmer, Massachusetts, USA): 2.5 μg of hFAAH membrane preparation was preincubated for 50 min at 37 °C in 190 μL of assay buffer (50 mM Tris HCl pH 7.4, 0.05% fatty acid free BSA), with 5 μL of inhibitor or 5 μL of DMSO to measure FAAH total activity. […] The reaction was carried out for 45 min at 37 °C, and fluorescence was measured with an EnVision 2014 Multilabel Reader (PerkinElmer, Massachusetts, USA) (excitation wavelength 355 nm/emission wavelength 460 nm). […]

[2] = biological target: T2, acid sphingomyelinase (ASM) (Homo sapiens, UniProt P17405); experiment: In vitro hASM assay; type: biochemical; conditions: 1 and 10 μM
T2 construct: 1.3 nM purified human full-length ASM enzyme (purified in house); made in house
T2 sequence (P17405 47-631): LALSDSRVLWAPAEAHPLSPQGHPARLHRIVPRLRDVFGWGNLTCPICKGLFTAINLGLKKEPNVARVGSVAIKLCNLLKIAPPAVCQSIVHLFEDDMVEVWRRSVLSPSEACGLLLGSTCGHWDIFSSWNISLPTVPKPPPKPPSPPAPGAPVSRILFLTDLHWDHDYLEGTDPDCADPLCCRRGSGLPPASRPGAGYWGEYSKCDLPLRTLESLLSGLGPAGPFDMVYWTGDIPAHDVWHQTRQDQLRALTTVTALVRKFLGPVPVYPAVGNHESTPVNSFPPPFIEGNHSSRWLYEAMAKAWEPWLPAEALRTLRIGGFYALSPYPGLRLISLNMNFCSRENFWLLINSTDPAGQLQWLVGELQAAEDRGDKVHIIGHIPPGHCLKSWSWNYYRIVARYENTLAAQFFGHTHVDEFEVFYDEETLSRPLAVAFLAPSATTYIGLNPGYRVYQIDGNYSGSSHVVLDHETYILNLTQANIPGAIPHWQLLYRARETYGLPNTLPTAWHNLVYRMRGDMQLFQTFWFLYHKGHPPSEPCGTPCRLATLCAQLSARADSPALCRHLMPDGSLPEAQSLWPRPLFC
Description: hASM activity measurement was conducted using the fluorogenic substrate 6-hexadecanoylamino-4-methylumbelliferylphosphorylcholine (HMU-PC, Toronto Research Chemicals) at 0.5 μM and 1.3 nM purified human full-length ASM enzyme (purified in house) in a buffer containing 50 mM citrate, 150 mM NaCl, 5 mM ZnCl2, and 0.43 mM Triton X-100 at pH 4.7 in a final volume of 50 μL. The reaction mixtures were incubated for 45 min at rt and stopped by the addition of 150 μL of 1 M glycine at pH 12.5. The formation of the fluorescent product was monitored by a plate reader at excitation/emission wavelengths of 385/450 nm. The average hASM activity was calculated from two independent experiments, each performed in two technical replicates.

CC(C)CNC(=O)n1c(=O)oc2cc(C3CCN(C)CC3)ccc21 [22m, N-Isobutyl-6-(1-methyl-4-piperidyl)-2-oxo-1,3-benzoxazole-3-carboxamide]
IC50 [1]: 0.07 µM | effect on activity of ASM [2]: no effect
